According to patent US9604964B2, “Dihydropyrazole GPR40 modulators” (BRISTOL-MYERS SQUIBB COMPANY, priority 2012, dated 2017):

The compounds below were run against human GPR40 (Homo sapiens, UniProt O14842) (assay: FDSS-based intracellular calcium assay (Human GPR40 in vitro assay)). Conditions: intracellular Ca2+ response, cells expressing GPR40; read-out: hGPR40 EC50.
human GPR40, sequence (O14842 whole entry): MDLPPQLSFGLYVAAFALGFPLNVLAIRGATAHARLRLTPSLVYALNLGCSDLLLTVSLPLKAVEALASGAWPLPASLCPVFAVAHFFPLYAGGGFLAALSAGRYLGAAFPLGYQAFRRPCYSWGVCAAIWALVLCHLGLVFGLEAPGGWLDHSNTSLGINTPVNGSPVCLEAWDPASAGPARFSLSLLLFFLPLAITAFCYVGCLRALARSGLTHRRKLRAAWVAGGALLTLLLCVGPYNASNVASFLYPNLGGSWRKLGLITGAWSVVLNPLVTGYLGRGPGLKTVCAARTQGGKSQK
Type: cell-based
Set-up: 3xFLAG; expressed in transfected cells
Protocol: FDSS-based Intracellular Calcium Assay
Compounds are dissolved in DMSO and diluted to desired concentrations with assay buffer and added to the cells as 3× solution (20 μL per well). Run fluorescence/luminescence reader FDSS (Hamamatsu) to read intracellular Ca^2+ response.
Compound `C[C@@H]1C(C(F)(F)F)=NN(c2ccc(OC3CCN(c4cc5c(cc4Cl)OCO5)CC3)cc2)[C@H]1CC(=O)O` [Example B14, 2-((4S,5S)-1-(4-((1-(6-Chlorobenzo[d] [1,3]dioxol-5-yl)piperidin-4-yl)oxy)phenyl)-4-methyl-3-(trifluoromethyl)-4,5-dihydro-1H-pyrazol-5-yl)acetic acid] has an EC50 of 569 nM.
`COc1cc(N2CCC(Cc3ccc(N4N=C(C(F)(F)F)[C@@H](C)[C@@H]4CC(=O)O)cc3)CC2)ccn1` [Example B9, 2-((4S,5S)-1-(4-((1-(2-methoxypyridin-4-yl)piperidin-4-yl)methyl)phenyl)-4-methyl-3-(trifluoromethyl)-4,5-dihydro-1H-pyrazol-5-yl)acetic acid] showed an EC50 of 2660 nM.
In the case of `COCC1CN(c2cc(OC)ncc2Cl)CCC1Oc1ccc(N2N=C(C(F)(F)F)[C@@H](C)[C@@H]2CC(=O)O)cc1` (single isomer, unassigned) [Example B3, Isomer 1], the EC50 is reported as 352 nM.
Compound `CCOc1ccc(F)c(N2CCC(Oc3ccc(N4N=C(C#N)C(C)C4CC(=O)O)cc3)CC2)c1` (single isomer, unassigned) [Example B5 Isomer 1, 2-(3-cyano-1-(4-((1-(5-ethoxy-2-fluorophenyl)piperidin-4-yl)oxy)phenyl)-4-methyl-4,5-dihydro-1H-pyrazol-5-yl)acetic acid] has an EC50 of 389 nM.
Work on `CCOc1ccc(F)c(N2CCC(Cc3ccc(N4N=C(C(F)(F)F)[C@@H](C)[C@@H]4CC(=O)O)cc3)C(C)C2)c1` (single isomer, unassigned) [Example 3 (Isomer 4)] yielded an EC50 of 672 nM.
`C[C@@H]1C(C(F)(F)F)=NN(c2ccc(OCC3CN(c4ccc5c(c4)OCO5)C3)cc2)[C@H]1CC(=O)O` [Example B34, 2-((4S,5S)-1-(4-((1-(benzo[d] [1,3]dioxol-5-yl)azetidin-3-yl)methoxy)phenyl)-4-methyl-3-(trifluoromethyl)-4,5-dihydro-1H-pyrazol-5-yl)acetic acid] gave an EC50 of 4760 nM.
For `COc1ccc(F)c(N2C[C@H]3C[C@@H]2CC3Oc2ccc(N3N=C(C(F)(F)F)[C@@H](C)[C@@H]3CC(=O)O)cc2)c1` (stereo partly drawn) [Example 69, 2-((4S,5S)-1-(4-(((1R,4R)-2-(2-fluoro-5-methoxyphenyl)-2-azabicyclo[2.2.1]heptan-5-yl)oxy)phenyl)-4-methyl-3-(trifluoromethyl)-4,5-dihydro-1H-pyrazol-5-yl)acetic acid], the EC50 was 847 nM.
`COc1ccc(F)c(N2C(=O)[C@H]3C[C@@H]2CC3Oc2ccc(N3N=C(C(F)(F)F)[C@@H](C)[C@@H]3CC(=O)O)cc2)c1` (stereo partly drawn) [Example 67, 2-((4S,5S)-1-(4-(((1R,4S)-2-(2-fluoro-5-methoxyphenyl)-3-oxo-2-azabicyclo[2.2.1]heptan-5-yl)oxy)phenyl)-4-methyl-3-(trifluoromethyl)-4,5-dihydro-1H-pyrazol-5-yl)acetic acid] showed an EC50 of 6410 nM.
`COc1cccc(N2CC3CCC(C2)C3Cc2ccc(N3N=C(C(F)(F)F)[C@@H](C)[C@@H]3CC(=O)O)cc2)c1` (stereo partly drawn) [Example B12, 2-((4S,5S)-1-(4-(((1R,5S,8S)-3-(3-methoxyphenyl)-3-azabicyclo[3.2.1]octan-8-yl)methyl)phenyl)-4-methyl-3-(trifluoromethyl)-4,5-dihydro-1H-pyrazol-5-yl)acetic acid] showed an EC50 of 5720 nM.
With `C[C@@H]1C(C(F)(F)F)=NN(c2ccc(OC3CCN(c4cc(-n5cccn5)ccc4F)CC3)cc2)[C@H]1CC(=O)O` [Example B20, 2-((4S,5S)-1-(4-((1-(2-Fluoro-5-(1H-pyrazol-1-yl)phenyl)piperidin-4-yl)oxy)phenyl)-4-methyl-3-(trifluoromethyl)-4,5-dihydro-1H-pyrazol-5-yl)acetic acid] the EC50 was 4590 nM.
`CC1CN(c2cc(OCC(F)(F)F)ccc2F)CCC1Oc1ccc(N2N=C(C(F)(F)F)[C@@H](C)[C@@H]2CC(=O)O)cc1` (stereo partly drawn) [Example 11, 2-((4S,5S)-1-(4-((1-(2-fluoro-5-(2,2,2-trifluoroethoxy)phenyl)-3-methylpiperidin-4-yl)oxy)phenyl)-4-methyl-3-(trifluoromethyl)-4,5-dihydro-1H-pyrazol-5-yl)acetic acid] gave an EC50 of 1080 nM.
